In one series the test system is monoamine oxidase. The settings on record: cited from earlier work.
Series [1] deals with treatment resistant depression. Nature of the series: Example 11: case, treatment resistant depression. The series is classed as in vivo, human. The settings on record: under prior psychiatrist.
Series [2] has as its system dopamine neuronal reuptake. The following applies: cited from earlier work.
In series [3] the test system is norepinephrine neuronal reuptake. The settings on record: cited from earlier work.
For series [4] the following is noted: cited from earlier work; for elimination half-life: plasma.
Series [5] relates to treatment resistant depression. The series is classed as in vivo, human. The settings on record: 150 mg titrated up to 225 mg.

As to `CC(NC(C)(C)C)C(=O)c1cccc(Cl)c1.Cl` (racemic) [bupropion, (±)-1-(3-chlorophenyl)-2-[(1,1-dimethylethyl)amino]-1-propanone hydrochloride], in the series on monoamine oxidase, the “inhibition of monoamine oxidase” value is reported as “does not inhibit”. In addition, the “symptomatic success in MDD, first episode” value in series [1] is recorded as “modest symptomatic success”. For the same compound, the “effect on dopamine reuptake (in words)” value in series [2] is “relatively weak inhibitor”. Further, the “effect on norepinephrine reuptake (in words)” value in series [3] is “relatively weak inhibitor”. In addition, the elimination half-life result in series [4] is “approximately 21 hours”.
`CN[C@H]1CC[C@@H](c2ccc(Cl)c(Cl)c2)c2ccccc21.Cl` [sertraline, (1S-cis)-4-(3,4-dichlorophenyl)-1,2,3,4-tetrahydro-N-methyl-1-naphthylamine hydrochloride]: the “response of first episode of Treatment Resistant Depression” value in series [5] is “partial response”. Besides, in series [2], the “effect on dopamine reuptake (in words)” value was “weak effects”. The “effect on norepinephrine reuptake (in words)” value in series [3] is recorded as “weak effects”. Further, the “reduction of elimination in elderly patients” value in series [4] (elderly patients) is recorded as “approximately 40%”. In addition, in series [4], the elimination half-life result is “about 26 hours”.

The values above are taken from patent publication US20070212428A1, “METHODS AND COMPOSITIONS FOR TREATING MOOD DISORDER” (MOOD MANAGEMENT SCIENCES, INC., priority 2004, published 2007).
